The values below come from ChEMBL document CHEMBL3228028, “Enzyme affinity of the 5,6-dihydro derivatives of the substrate and product of thymidylate synthetase catalysis” (J Med Chem, 1979).

Test [1] addresses T1, Thymidylate synthase (Lactobacillus casei, UniProt P00469).
T1 sequence (P00469 whole entry): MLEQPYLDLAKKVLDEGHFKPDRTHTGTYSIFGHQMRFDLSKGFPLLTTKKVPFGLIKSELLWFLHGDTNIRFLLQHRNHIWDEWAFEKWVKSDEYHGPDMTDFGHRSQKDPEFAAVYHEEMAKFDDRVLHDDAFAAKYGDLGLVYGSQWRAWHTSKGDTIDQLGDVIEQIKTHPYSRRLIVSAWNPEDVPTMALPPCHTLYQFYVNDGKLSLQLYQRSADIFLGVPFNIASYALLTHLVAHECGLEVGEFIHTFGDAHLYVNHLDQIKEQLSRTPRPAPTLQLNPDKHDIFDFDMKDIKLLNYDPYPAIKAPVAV
In words: Competitive inhibition of Lactobacillus casei thymidylate synthetase using 2'-deoxy[5-3H]uridine-5'-phosphate as substrate assessed as release of water after 15 mins by double reciprocal plot analysis. Details: species or system Lacticaseibacillus casei.

Test [2] deals with T1, Thymidylate synthase. In words: Competitive inhibition of Lactobacillus casei thymidylate synthetase using dTMP as substrate assessed as release of water after 15 mins by double reciprocal plot analysis. Details: species or system Lacticaseibacillus casei.

As a reminder, the Ki is the equilibrium dissociation constant of an inhibitor or competing ligand from its target. Take `CC1CN([C@H]2C[C@H](O)[C@@H](COP(=O)(O)O)O2)C(=O)NC1=O` (stereo partly drawn): at Thymidylate synthase [1], the Ki came out at 150 µM.

On to `O=C1CCN([C@H]2C[C@H](O)[C@@H](COP(=O)(O)O)O2)C(=O)N1`, for which the Ki on Thymidylate synthase [2] came out at 2.8 µM; at Thymidylate synthase [1], 100 µM.
